Data: ChEMBL document CHEMBL5252648, “Design, synthesis and bioactivity evaluation of a series of quinazolinone derivatives as potent PI3Kγ antagonist” (Bioorg Med Chem, 2023)

Columns and labels:
[1] = biological target: T1, Phosphatidylinositol 4,5-bisphosphate 3-kinase catalytic subunit delta isoform (Homo sapiens) (UniProt O00329); assay: Antagonist activity at PI3Kdelta (unknown origin) assessed as inhibition rate at 20 nM using PIP2 as substrate in presence of ATP incubated for 30 to 60 mins by ADP-glo based luminescence assay relative to control; details: time 30-60 min
T1 sequence (whole entry): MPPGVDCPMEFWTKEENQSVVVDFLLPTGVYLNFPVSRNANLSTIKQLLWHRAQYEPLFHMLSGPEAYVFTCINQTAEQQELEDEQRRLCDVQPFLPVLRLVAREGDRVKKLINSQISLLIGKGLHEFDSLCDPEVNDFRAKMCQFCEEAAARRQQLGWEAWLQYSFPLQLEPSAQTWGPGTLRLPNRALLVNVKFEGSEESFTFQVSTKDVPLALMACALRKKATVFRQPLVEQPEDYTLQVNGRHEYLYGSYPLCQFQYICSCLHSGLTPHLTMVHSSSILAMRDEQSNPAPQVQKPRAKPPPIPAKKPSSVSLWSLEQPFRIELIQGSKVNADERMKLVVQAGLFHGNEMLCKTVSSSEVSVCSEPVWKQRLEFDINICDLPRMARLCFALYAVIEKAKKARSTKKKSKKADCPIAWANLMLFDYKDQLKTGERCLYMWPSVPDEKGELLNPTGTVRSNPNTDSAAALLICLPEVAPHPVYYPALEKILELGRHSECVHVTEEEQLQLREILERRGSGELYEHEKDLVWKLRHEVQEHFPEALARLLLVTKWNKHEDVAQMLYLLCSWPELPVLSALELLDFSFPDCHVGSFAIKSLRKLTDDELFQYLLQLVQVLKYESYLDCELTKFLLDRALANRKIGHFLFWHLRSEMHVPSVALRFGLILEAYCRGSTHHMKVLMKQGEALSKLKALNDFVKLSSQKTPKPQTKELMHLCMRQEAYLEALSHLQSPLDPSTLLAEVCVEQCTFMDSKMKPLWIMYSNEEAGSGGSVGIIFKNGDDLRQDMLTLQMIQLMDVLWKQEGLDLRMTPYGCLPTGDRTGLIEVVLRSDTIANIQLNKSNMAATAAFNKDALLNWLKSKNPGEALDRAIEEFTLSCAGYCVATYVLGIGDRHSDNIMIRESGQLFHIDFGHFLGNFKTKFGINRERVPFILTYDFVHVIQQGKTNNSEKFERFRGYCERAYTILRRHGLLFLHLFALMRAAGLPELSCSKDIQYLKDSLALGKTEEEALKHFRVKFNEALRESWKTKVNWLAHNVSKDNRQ

[2] = biological target: Phosphatidylinositol 4,5-bisphosphate 3-kinase catalytic subunit gamma isoform (Homo sapiens, UniProt P48736); assay: Antagonist activity at PI3Kgamma (unknown origin) assessed as inhibition rate at 20 nM using PIP2 as substrate in presence of ATP incubated for 30 to 60 mins by ADP-glo based luminescence assay relative to control; details: time 30-60 min
[3] = Cytotoxicity against mouse L929 cells assessed as reduction in cell viability incubated for 24 hrs by CCK-8 assay; type: toxicity, cell-based
T47D = assay: Cytotoxicity against human T47D cells assessed as reduction in cell viability incubated for 24 hrs by CCK-8 assay; type: functional, cell-based
Huh-7 = assay: Cytotoxicity against human Huh-7 cells assessed as reduction in cell viability incubated for 24 hrs by CCK-8 assay; type: functional, cell-based; details: Huh-7, 24 h
THP-1 = assay: Cytotoxicity against human THP-1 cells assessed as reduction in cell viability incubated for 24 hrs by CCK-8 assay; type: functional, cell-based; details: THP-1, 24 h
MDA-MB-231 = assay: Cytotoxicity against human MDA-MB-231 cells assessed as reduction in cell viability incubated for 24 hrs by CCK-8 assay; type: functional, cell-based; details: MDA-MB-231, 24 h
MCF7 = assay: Cytotoxicity against human MCF7 cells assessed as reduction in cell viability incubated for 24 hrs by CCK-8 assay; type: functional, cell-based; details: MCF7, 24 h
Jurkat = assay: Cytotoxicity against human Jurkat cells assessed as reduction in cell viability incubated for 24 hrs by CCK-8 assay; type: functional, cell-based
B16-F10 = assay: Cytotoxicity against mouse B16-F10 cells assessed as reduction in cell viability incubated for 24 hrs by CCK-8 assay; type: functional, cell-based; details: B16-F10, 24 h
A549 = assay: Cytotoxicity against human A549 cells assessed as reduction in cell viability incubated for 24 hrs by CCK-8 assay; type: functional, cell-based; details: A549, 24 h
HepG2 = assay: Cytotoxicity against human HepG2 cells assessed as reduction in cell viability incubated for 24 hrs by CCK-8 assay; type: functional, cell-based; details: HepG2, 24 h
4T1 = assay: Cytotoxicity against mouse 4T1 cells assessed as reduction in cell viability incubated for 24 hrs by CCK-8 assay; type: functional, cell-based; details: 4T1, 24 h
RAW264.7 = assay: Cytotoxicity against mouse RAW264.7 cells assessed as reduction in cell viability incubated for 24 hrs by CCK-8 assay; type: functional, cell-based; details: RAW264.7, 24 h

Phosphatidylinositol 4,5-bisphosphate 3-kinase catalytic subunit gamma isoform, sequence (P48736 whole entry, looked up, canonical isoform): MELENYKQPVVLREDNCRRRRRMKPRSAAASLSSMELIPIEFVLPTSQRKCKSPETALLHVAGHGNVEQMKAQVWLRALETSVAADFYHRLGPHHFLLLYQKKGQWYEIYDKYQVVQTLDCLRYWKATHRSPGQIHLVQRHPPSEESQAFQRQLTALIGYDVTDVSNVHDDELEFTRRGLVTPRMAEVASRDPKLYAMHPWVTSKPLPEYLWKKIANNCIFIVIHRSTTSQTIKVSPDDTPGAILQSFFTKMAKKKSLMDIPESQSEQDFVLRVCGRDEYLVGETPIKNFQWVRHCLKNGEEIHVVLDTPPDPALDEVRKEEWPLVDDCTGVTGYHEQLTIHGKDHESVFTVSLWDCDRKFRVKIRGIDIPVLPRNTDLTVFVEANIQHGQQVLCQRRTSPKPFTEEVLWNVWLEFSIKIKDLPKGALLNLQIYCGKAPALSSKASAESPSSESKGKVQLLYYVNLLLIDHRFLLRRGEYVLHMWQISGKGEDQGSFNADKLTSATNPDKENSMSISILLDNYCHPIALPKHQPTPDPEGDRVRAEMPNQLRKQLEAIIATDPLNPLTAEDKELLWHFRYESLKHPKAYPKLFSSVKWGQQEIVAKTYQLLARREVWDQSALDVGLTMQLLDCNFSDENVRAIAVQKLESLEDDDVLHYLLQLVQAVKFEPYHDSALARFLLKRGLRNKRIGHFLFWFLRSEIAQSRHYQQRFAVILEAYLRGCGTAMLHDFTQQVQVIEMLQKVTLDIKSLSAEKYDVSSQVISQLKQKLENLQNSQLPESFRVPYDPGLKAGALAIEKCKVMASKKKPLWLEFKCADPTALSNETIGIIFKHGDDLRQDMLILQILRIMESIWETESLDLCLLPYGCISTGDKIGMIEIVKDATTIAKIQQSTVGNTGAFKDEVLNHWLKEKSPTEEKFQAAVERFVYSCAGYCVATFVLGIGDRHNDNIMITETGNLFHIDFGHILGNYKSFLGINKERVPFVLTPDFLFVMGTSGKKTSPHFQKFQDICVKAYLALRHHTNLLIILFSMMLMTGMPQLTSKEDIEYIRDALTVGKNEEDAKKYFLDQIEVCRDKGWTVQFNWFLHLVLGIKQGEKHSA

inhibition [1]	inhibition [2]	SMILES	further results
17%	37%	CC(NC(=O)c1c(N)nn2cccnc12)c1cc2cccc(C#Cc3ccc(C(F)(F)F)cc3)c2c(=O)n1-c1ccccc1 (stereo not drawn)	
19%	31%	COc1ccc(C#Cc2cccc3cc(C(C)NC(=O)c4c(N)nn5cccnc45)n(-c4ccccc4)c(=O)c23)cc1 (stereo not drawn)	
	27%	CC(NC(=O)c1cnn2cccnc12)c1cc2cccc(C#Cc3ccc(C(F)(F)F)cc3)c2c(=O)n1-c1ccccc1 (stereo not drawn)	inhibition ([1]; filed as antagonist): 40%
18%	28%	CC(NC(=O)c1c(N)nn2cccnc12)c1cc2cccc(C#Cc3ccc(N(C)C)cc3)c2c(=O)n1-c1ccccc1 (stereo not drawn)	
27%	22%	CCCc1ccc(C#Cc2cccc3cc(C(C)NC(=O)c4c(N)nn5cccnc45)n(-c4ccccc4)c(=O)c23)cc1 (stereo not drawn)	
27%	35%	COCC#Cc1cccc2cc(C(C)NC(=O)c3c(N)nn4cccnc34)n(-c3ccccc3)c(=O)c12 (stereo not drawn)	
25%	38%	CC(NC(=O)c1c(N)nn2cccnc12)c1cc2cccc(C#CCN)c2c(=O)n1-c1ccccc1 (stereo not drawn)	
17%	33%	CC(NC(=O)c1c(N)nn2cccnc12)c1cc2cccc(C#CC3CC3)c2c(=O)n1-c1ccccc1 (stereo not drawn)	
25%	27%	CC(NC(=O)c1c(N)nn2cccnc12)c1cc2cccc(C#Cc3ccccc3)c2c(=O)n1-c1ccccc1 (stereo not drawn)	

More lines, now with the values behind:

SMILES	inhibition [1]	inhibition [2]	further results
CC(NC(=O)c1cnn2cccnc12)c1cc2cccc(C#Cc3ccc(N(C)C)cc3)c2c(=O)n1-c1ccccc1 (stereo not drawn)	28%	22%	
CC(Nc1ncnc2[nH]cnc12)c1cc2cccc(C#Cc3ccc(C(F)(F)F)cc3)c2c(=O)n1-c1ccccc1 (stereo not drawn)	14%		inhibition ([2]; filed as antagonist): 44%
CC(Nc1ncnc2[nH]cnc12)c1cc2cccc(C#Cc3ccc(N(C)C)cc3)c2c(=O)n1-c1ccccc1 (stereo not drawn)	14%		inhibition ([2]; filed as antagonist): 46%
CCCCC#Cc1cccc2cc(C(C)Nc3ncnc4[nH]cnc34)n(-c3ccccc3)c(=O)c12 (stereo not drawn)	21%	33%	
CC(NC(=O)c1ccc2occc2c1)c1cc2cccc(Cl)c2c(=O)n1-c1ccccc1 (stereo not drawn)	8%	11%	
COCC#Cc1cccc2cc(C(C)Nc3ncnc4[nH]cnc34)n(-c3ccccc3)c(=O)c12 (stereo not drawn)	26%		inhibition ([2]; filed as antagonist): 41%
CC(NC(=O)c1cnn2cccnc12)c1cc2cccc(Cl)c2c(=O)n1-c1ccccc1 (stereo not drawn)	13%	36%	
CC(NC(=O)c1cccc2c1OCCO2)c1cc2cccc(Cl)c2c(=O)n1-c1ccccc1 (stereo not drawn)	32%	9%	
CCCC#Cc1cccc2cc(C(C)NC(=O)c3c(N)nn4cccnc34)n(-c3ccccc3)c(=O)c12 (stereo not drawn)	29%	24%	
CCCc1ccc(C#Cc2cccc3cc(C(C)Nc4ncnc5[nH]cnc45)n(-c4ccccc4)c(=O)c23)cc1 (stereo not drawn)	8%	13%	
CC(NC(=O)c1ccncc1N)c1cc2cccc(Cl)c2c(=O)n1-c1ccccc1 (stereo not drawn)	24%	33%	
COc1ccc(C#Cc2cccc3cc(C(C)NC(=O)c4cnn5cccnc45)n(-c4ccccc4)c(=O)c23)cc1 (stereo not drawn)	25%	25%	
CC(NC(=O)c1cnn2cccnc12)c1cc2cccc(C#Cc3ccccc3)c2c(=O)n1-c1ccccc1 (stereo not drawn)	22%	24%	
CC(Nc1ncnc2c1ncn2C)c1cc2cccc(Cl)c2c(=O)n1-c1ccccc1 (stereo not drawn)	28%	35%	
CC(NC(=O)c1cncc(N2CCOCC2)n1)c1cc2cccc(Cl)c2c(=O)n1-c1ccccc1 (stereo not drawn)	14%	13%	
C[C@H](Nc1ncnc2[nH]cnc12)c1cc2cccc(Cl)c2c(=O)n1-c1ccccc1 [DUVELISIB]			IC50 at 24 h [3]: > 100 µM
CC(Nc1ncnc2[nH]cnc12)c1cc2cccc(C#CC3CC3)c2c(=O)n1-c1ccccc1 (stereo not drawn)			inhibition ([1]; filed as antagonist): 44%; inhibition ([2]; filed as antagonist): 43%
C[C@H](Nc1ncnc2nc[nH]c12)c1cc2cccc(Cl)c2c(=O)n1-c1ccccc1 [DUVELISIB]		37%	IC50 (T47D): > 100 µM; IC50 (Huh-7): 6.57 µM; IC50 (THP-1): 14.9 µM; IC50 (MDA-MB-231): 9.76 µM; IC50 (MCF7): > 100 µM; IC50 (Jurkat): 3.17 µM; IC50 (B16-F10): > 100 µM; inhibition ([1]; filed as antagonist): 66.7%; IC50 (A549): > 100 µM; IC50 (HepG2): > 100 µM; IC50 (4T1): 22.9 µM; IC50 (RAW264.7): 13.2 µM
CC(NC(=O)c1cncc2ccccc12)c1cc2cccc(Cl)c2c(=O)n1-c1ccccc1 (stereo not drawn)	3%	2%	
CC(Nc1ncnc2[nH]cnc12)c1cc2cccc(C#Cc3ccccc3)c2c(=O)n1-c1ccccc1 (stereo not drawn)	23%		inhibition ([2]; filed as antagonist): 51%
